In US20240335442A1 (Eurofarma Laboratórios S.A., priority 2021, published 2024):
pIC50: −log10 of the molar value.

Columns and labels:
[1] = target: human sodium channel Nav 1.8 (Homo sapiens (Human), UniProt Q9Y5Y9); test: Automated whole-cell voltage-clamp (ScreenPatch 384P), Nav 1.8 sodium current, Protocol 2; type: cell-based; conditions: read-out: Nav1.8 IC50
Outline: (§1)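 Peak TP1A sodium current block, scaled between DMSO vehicle and positive control, was fitted with a Hill equation to give IC50 at eight compound concentrations (≥5 min, room temperature) in stable CHO lines. Protocol 2 (0.05 Hz) used an 8 s −40 mV inactivating prepulse from −100 mV; Protocol 1 (0.1 Hz) held at −90 mV; test steps 10 mV for Nav1.8, 0 mV for Nav1.7.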

[2] = target: human sodium channel Nav 1.7 (Homo sapiens (Human), UniProt Q15858); test: Automated whole-cell voltage-clamp (ScreenPatch 384P), Nav 1.7 sodium current, Protocol 2; type: cell-based; conditions: read-out: Nav1.7 IC50
human sodium channel Nav 1.7, sequence (Q15858 whole entry): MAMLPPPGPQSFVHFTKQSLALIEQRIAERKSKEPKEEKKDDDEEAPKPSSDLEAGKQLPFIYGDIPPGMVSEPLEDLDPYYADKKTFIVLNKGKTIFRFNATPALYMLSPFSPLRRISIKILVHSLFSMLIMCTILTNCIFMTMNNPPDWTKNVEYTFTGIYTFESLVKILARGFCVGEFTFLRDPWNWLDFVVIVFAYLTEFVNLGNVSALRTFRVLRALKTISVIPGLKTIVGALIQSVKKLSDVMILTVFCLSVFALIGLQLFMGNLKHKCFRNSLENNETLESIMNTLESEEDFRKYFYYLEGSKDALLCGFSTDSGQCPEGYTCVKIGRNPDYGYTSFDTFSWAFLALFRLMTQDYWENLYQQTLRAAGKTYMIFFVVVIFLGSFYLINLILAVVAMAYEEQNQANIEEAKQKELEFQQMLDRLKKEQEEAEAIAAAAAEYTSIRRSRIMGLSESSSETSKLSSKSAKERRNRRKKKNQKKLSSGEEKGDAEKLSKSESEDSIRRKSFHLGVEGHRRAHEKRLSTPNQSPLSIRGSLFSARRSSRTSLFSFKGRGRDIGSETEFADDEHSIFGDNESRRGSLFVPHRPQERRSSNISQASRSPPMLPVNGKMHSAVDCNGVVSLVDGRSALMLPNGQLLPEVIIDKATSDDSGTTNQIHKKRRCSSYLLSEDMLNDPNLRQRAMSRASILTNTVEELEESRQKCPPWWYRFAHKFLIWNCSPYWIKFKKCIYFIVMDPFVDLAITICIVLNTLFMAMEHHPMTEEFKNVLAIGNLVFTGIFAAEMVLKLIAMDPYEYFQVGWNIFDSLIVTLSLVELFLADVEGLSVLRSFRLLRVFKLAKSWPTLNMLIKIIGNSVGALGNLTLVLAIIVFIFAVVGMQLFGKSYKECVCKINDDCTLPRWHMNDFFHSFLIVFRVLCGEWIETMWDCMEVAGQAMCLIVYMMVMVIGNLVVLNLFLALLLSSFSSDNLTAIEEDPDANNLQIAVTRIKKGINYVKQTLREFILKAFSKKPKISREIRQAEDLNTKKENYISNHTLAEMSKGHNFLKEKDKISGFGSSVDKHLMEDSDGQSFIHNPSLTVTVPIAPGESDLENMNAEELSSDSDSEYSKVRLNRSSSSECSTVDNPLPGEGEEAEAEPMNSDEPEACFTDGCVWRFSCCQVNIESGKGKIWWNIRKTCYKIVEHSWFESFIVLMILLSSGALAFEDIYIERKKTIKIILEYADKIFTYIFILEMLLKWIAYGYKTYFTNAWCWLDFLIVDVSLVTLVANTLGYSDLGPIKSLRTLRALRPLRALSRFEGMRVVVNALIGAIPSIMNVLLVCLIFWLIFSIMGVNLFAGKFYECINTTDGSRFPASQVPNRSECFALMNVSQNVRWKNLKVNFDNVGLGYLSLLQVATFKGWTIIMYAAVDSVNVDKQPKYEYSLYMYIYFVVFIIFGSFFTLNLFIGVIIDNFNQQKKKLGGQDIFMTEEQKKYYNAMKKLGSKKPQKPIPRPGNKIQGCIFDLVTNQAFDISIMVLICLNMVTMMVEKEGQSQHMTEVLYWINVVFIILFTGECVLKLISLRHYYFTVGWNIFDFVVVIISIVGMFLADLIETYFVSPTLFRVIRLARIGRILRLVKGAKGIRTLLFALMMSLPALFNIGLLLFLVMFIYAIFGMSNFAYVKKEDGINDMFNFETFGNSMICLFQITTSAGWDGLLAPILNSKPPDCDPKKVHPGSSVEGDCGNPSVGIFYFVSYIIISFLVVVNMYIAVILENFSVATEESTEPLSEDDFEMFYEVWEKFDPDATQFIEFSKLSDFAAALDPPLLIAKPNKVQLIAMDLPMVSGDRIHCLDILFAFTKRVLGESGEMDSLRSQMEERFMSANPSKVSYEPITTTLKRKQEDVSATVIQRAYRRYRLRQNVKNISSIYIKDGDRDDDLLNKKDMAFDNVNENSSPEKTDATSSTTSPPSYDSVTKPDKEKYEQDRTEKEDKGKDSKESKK
Outline: as §1

human sodium channel Nav 1.8, sequence (Q9Y5Y9 whole entry): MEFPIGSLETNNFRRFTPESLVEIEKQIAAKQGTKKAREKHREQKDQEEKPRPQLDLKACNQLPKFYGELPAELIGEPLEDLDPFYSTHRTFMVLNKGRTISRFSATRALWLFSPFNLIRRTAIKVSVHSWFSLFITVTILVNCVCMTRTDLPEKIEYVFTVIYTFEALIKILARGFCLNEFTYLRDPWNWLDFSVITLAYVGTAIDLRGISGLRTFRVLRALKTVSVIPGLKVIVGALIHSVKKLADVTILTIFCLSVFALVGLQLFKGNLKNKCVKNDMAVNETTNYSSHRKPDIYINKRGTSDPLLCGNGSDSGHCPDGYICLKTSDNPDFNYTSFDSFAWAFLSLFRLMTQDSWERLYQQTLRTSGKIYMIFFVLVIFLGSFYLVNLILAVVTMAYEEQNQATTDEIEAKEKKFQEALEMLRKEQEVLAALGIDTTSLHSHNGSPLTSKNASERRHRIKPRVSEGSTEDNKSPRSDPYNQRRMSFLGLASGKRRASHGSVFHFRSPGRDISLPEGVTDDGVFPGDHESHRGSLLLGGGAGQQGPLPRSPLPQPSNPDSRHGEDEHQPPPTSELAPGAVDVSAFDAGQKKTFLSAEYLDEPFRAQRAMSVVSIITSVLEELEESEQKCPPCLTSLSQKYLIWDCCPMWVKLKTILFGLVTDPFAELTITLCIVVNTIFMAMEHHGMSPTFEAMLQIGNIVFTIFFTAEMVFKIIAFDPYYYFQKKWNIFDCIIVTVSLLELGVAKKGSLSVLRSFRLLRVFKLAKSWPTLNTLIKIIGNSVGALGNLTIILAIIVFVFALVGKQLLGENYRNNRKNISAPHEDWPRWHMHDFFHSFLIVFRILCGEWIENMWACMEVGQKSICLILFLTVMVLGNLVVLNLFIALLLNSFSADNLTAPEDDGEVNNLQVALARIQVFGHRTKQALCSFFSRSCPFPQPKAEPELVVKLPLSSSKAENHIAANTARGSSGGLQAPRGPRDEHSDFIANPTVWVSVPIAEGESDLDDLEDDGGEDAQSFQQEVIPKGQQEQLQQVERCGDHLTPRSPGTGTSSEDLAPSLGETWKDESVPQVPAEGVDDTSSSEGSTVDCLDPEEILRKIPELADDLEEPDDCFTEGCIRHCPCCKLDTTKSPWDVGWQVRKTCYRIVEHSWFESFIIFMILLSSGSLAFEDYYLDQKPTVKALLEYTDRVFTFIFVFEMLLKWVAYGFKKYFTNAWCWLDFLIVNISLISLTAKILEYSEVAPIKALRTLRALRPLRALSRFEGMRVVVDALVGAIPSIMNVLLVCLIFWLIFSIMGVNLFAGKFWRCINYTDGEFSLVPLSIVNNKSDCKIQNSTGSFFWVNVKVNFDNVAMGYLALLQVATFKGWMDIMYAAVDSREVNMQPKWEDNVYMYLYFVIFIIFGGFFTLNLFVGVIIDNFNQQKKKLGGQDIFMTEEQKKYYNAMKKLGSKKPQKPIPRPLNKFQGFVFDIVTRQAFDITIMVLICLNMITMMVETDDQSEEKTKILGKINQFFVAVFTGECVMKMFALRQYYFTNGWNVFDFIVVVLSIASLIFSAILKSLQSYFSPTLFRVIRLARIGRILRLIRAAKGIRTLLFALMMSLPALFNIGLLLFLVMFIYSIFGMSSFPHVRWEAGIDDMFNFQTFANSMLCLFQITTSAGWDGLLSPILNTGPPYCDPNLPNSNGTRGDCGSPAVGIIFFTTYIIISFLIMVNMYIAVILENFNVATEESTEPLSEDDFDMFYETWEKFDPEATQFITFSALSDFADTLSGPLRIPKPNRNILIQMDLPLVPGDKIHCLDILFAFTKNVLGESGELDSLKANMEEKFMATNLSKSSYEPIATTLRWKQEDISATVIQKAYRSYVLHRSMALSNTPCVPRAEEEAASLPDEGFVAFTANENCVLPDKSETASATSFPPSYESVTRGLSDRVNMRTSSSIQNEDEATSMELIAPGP

SMILES: CCOc1ccc(-c2cncc(C(=O)N/N=C/c3cccc(OC)c3)n2)c(OC(C)C)c1 [Compound 154, (E)-6-(4-ethoxy-2-isopropoxyphenyl)-N′-(3-methoxybenzylidene)pyrazine-2-carbohydrazide]
- pIC50 [1]: < 6.00
- pIC50 [2]: 5.86

SMILES: COc1cc(/C=N/NC(=O)c2cncc(-c3ccc(OC)cc3OC(C)C)n2)cc(OC)c1 [Compound 156, (E)-N′-(3,5-dimethoxybenzylidene)-6-(2-isopropxy-4-methoxyphenyl)pyrazine-2-carbohydrazide]
- pIC50 [1]: < 6.00
- pIC50 [2]: 5.32

SMILES: COc1cc(/C=N/NC(=O)c2cncc(-c3ccc(OC4CCCC4)cc3Cl)n2)cc(OC)c1 [Compound 157, (E)-6-(2-chloro-4-(cyclopentyloxy)phenyl)-N′-(3,5-dimethoxybenzylidene)pyrazine-2-carbohydrazide]
- pIC50 [1]: 6.34
- pIC50 [2]: 6.74

SMILES: CCCCOc1ccc(-c2cncc(C(=O)N/N=C/c3cc(OC)cc(OC)c3)n2)c(Cl)c1 [Compound 158, (E)-6-(4-butoxy-2-chlorophenyl)-N′-(3,5-dimethoxybenzylidene)pyrazine-2-carbohydrazide]
- pIC50 [1]: 6.55
- pIC50 [2]: 6.61

SMILES: COc1cc(/C=N/NC(=O)c2cncc(-c3ccc(OCC(C)C)cc3Cl)n2)cc(OC)c1 [Compound 159, (E)-6-(2-chloro-4-isobutoxyphenyl)-N′-(3,5-dimethoxybenzylidene)pyrazine-2-carbohydrazide]
- pIC50 [1]: 6.53
- pIC50 [2]: 6.66

SMILES: COc1cc(/C=N/NC(=O)c2cncc(-c3ccc(OC)cc3OCCN(C)C)n2)cc(OC)c1 [Compound 160, (E)-N′-(3,5-dimethoxybenzylidene)-6-(2-(2-(dimethylamino)ethoxy)-4-methoxyphenol)pyrazine-2-carbohydrazide]
- pIC50 [1]: < 6.00
- pIC50 [2]: < 5.00

SMILES: COc1cc(/C=N/NC(=O)c2cncc(-c3ccccc3OC3CCCC3)n2)cc(OC)c1 [Compound 161, (E)-6-(2-(cyclopentyloxy)phenyl)-N′-(3,5-dimethoxybenzylidene)pyrazine-2-carbohydrazide]
- pIC50 [1]: < 6.00
- pIC50 [2]: < 5.00

SMILES: COc1cc(/C=N/NC(=O)c2cncc(Cl)n2)cc(OC)c1 [Compound 163, (E)-6-chloro-N′-(3,5-dimethoxybenzylidene)pyrazine-2-carbohydrazide]
- pIC50 [1]: < 6.00
- pIC50 [2]: < 5.00

SMILES: COc1cc(/C=N/NC(=O)c2cnc(Cl)cn2)cc(OC)c1 [Compound 164, (E)-5-chloro-N′-(3,5-dimethoxybenzylidene)pyrazine-2-carbohydrazide]
- pIC50 [1]: < 6.00
- pIC50 [2]: < 5.00

SMILES: COc1cc(/C=N/NC(=O)c2nccnc2Cl)cc(OC)c1 [Compound 165, (E)-3-chloro-N′-(3,5-dimethoxybenzylidene)pyrazine-2-carbohydrazide]
- pIC50 [1]: < 6.00
- pIC50 [2]: < 5.00

SMILES: CCc1cnc(C(=O)N/N=C/c2cc(OC)cc(OC)c2)cn1 [Compound 167, (E)-N′-(3,5-dimethoxybenzylidene)-5-ethylpyrazine-2-carbohydrazide]
- pIC50 [1]: < 6.00
- pIC50 [2]: < 5.00

SMILES: COc1ccc(-c2cncc(C(=O)N(C)/N=C/c3cc(OC)cc(OC)c3)n2)cc1 [Compound 168, (E)-N′-(3,5-dimethoxybenzylidene)-6-(4-methoxyphenyl)-N-methylpyrazine-2-carbohydrazide]
- pIC50 [1]: < 6.00
- pIC50 [2]: < 5.00

SMILES: COc1cc(/C=N/NC(=O)c2cncc(N3CCC(F)(F)C(C)C3)n2)cc(OC)c1 (centres unmarked) [Compound 169, (E)-6-(4,4-difluoro-3-methylpiperidin-1-yl)-N′-(3,5-dimethoxybenzylidene)pyrazine-2-carbohydrazide]
- pIC50 [1]: < 6.00
- pIC50 [2]: < 5.00

SMILES: CCOc1ccc(-c2cncc(C(=O)N/N=C/c3ccccc3)n2)cc1 [Compound 170, (E)-N′-benzylidene-6-(4-ethoxyphenyl)pyrazine-2-carbohydrazide]
- pIC50 [1]: < 6.00
- pIC50 [2]: < 5.00

SMILES: CCOc1ccc(-c2cncc(C(=O)N/N=C/C3CCCCC3)n2)cc1 [Compound 171, (E)-N′-(cyclohexylmethylene)-6-(4-ethoxyphenyl)pyrazine-2-carbohydrazide]
- pIC50 [1]: < 6.00
- pIC50 [2]: < 5.00

SMILES: CCOc1ccc(-c2cncc(C(=O)N/N=C/C3CCC(F)(F)CC3)n2)cc1 [Compound 172, (E)-N′-((4,4-diflurocyclohexyl)methylene)-6-(4-ethoxyphenyl)pyrazine-2-carbohydrazide]
- pIC50 [1]: 6.24
- pIC50 [2]: < 5.00

SMILES: COc1ccc(-c2cncc(C(=O)N/N=C/C3CCCCC3)n2)cc1 [Compound 173, (E)-N′-(cyclohexylmethylene)-6-(4-methoxyphenyl)pyrazine-2-carbohydrazide]
- pIC50 [1]: 6.20
- pIC50 [2]: < 5.00

SMILES: CC(C)Oc1ccc(-c2cncc(C(=O)N/N=C/C3CCCCC3)n2)cc1 [Compound 175, (E)-N′-(cyclohexylmethylene)-6-(4-isopropoxyphenyl)pyrazine-2-carbohydrazide]
- pIC50 [1]: 6.44
- pIC50 [2]: 6.96

SMILES: COc1cc(/C=N/NC(=O)c2cncc(-c3ccc(C(F)F)cc3)n2)cc(OC)c1 [Compound 177, (E)-6-(4-(difluoromethyl)phenyl)-N′-(3,5-dimethoxybenzylidene)pyrazine-2-carbohydrazide]
- pIC50 [1]: 6.02
- pIC50 [2]: < 6.00

SMILES: COc1ccc(-c2cncc(C(=O)N/N=C/c3ccccc3)n2)cc1 [Compound 178, (E)-N′-benzylidene-6-(4-methoxyphenyl)pyrazine-2-carbohydrazide]
- pIC50 [1]: 6.45
- pIC50 [2]: 5.50

SMILES: COc1cc(/C=N/NC(=O)c2cncc(N3CCCC(F)(F)CC3)n2)cc(OC)c1 [Compound 179, (E)-6-(4,4-difluoroazepan-1-yl)-N′-(3,5-dimethoxybenzylidene)pyrazine-2-carbohydrazide]
- pIC50 [1]: < 6.00
- pIC50 [2]: < 5.00

SMILES: COc1cc(/C=N/NC(=O)c2cncc(N3CCC(F)(F)CC3)n2)cc(OC)c1 [Compound 180, (E)-6-(4,4-difluoropiperidin-1-yl)-N′-(3,5-dimethoxybenzylidene)pyrazine-2-carbohyrazide]
- pIC50 [1]: < 6.00
- pIC50 [2]: < 5.00

SMILES: COc1ccc(-c2cncc(C(=O)N/N=C/C3CCCCCC3)n2)cc1 [Compound 181, (E)-N′-(cycloheptylmethylene)-6-(4-methoxyphenyl)pyrazine-2-carbohydrazide]
- pIC50 [1]: 6.49
- pIC50 [2]: 5.19

SMILES: CCOc1ccc(-c2cncc(C(=O)N/N=C/C3CCCCCC3)n2)cc1 [Compound 182, (E)-N′-(cycloheptylmethylene)-6-(4-ethoxyphenyl)pyrazine-2-carbohyrazide]
- pIC50 [1]: 6.52
- pIC50 [2]: < 5.00

SMILES: CC(C)Oc1ccc(-c2cncc(C(=O)N/N=C/C3CCCCCC3)n2)cc1 [Compound 183, (E)-N′-(cycloheptylmethylene)-6-(4-isopropoxyphenyl)pyrazine-2-carbohyazide]
- pIC50 [1]: 6.64
- pIC50 [2]: 6.59

SMILES: COc1cc(/C=N/NC(=O)c2cncc(-c3ccc(OC)nc3)n2)cc(OC)c1 [Compound 184, (E)-N′-(3,5-dimethoxybenzylidene)-6-(6-methoxypyridin-3-yl)pyrazine-2-carbohydrazide]
- pIC50 [1]: 6.40
- pIC50 [2]: < 5.00

SMILES: CCOc1ccc(-c2cncc(C(=O)N/N=C/c3cc(OC)cc(OC)c3)n2)c(C(F)(F)F)c1 [Compound 187]
- pIC50 [1]: 6.30
- pIC50 [2]: 6.66

SMILES: CCOc1ccc(-c2cncc(C(=O)N/N=C/c3ccc(C(=O)NS(C)(=O)=O)cc3)n2)cc1 [Compound 188, (E)-4-((2-(6-(4-ethoxyphenyl)pyrazine-2-carbonyl)hydrazinalidene)methyl)-N-(methylsulfonyl)benzamide]
- pIC50 [1]: < 6.00
- pIC50 [2]: < 5.00

SMILES: COc1cc(/C=N/NC(=O)c2cncc(-c3ccc(C(=O)NS(C)(=O)=O)cc3)n2)cc(OC)c1 [Compound 190, (E)-4-(6-(2-(3,5-dimethoxybenzylidene)hydrazine-1-carbonyl)pyrazin-2-yl)-N-(methylsulfonyl)benzamide]
- pIC50 [1]: < 6.00
- pIC50 [2]: < 5.00

SMILES: CCOc1ccc(-c2cncc(C(=O)N/N=C/c3ccccc3CS(C)(=O)=O)n2)cc1 [Compound 191, (E)-6-(4-ethoxyphenyl)-N′-(2-((methylsulfonyl)methyl)benzylidene)pyrazine-2-carbohydrazide]
- pIC50 [1]: < 6.00
- pIC50 [2]: 5.49

SMILES: CCOc1ccc(-c2cncc(C(=O)N/N=C/c3ccccc3S(C)(=O)=O)n2)cc1 [Compound 192]
- pIC50 [1]: 6.02
- pIC50 [2]: 5.14

SMILES: CCOc1ccc(-c2cncc(C(=O)N/N=C/c3ccccc3NS(C)(=O)=O)n2)cc1 [Compound 193, (E)-N-(2-((2-(6-(4-ethoxyphenyl)pyrazine-2-carbonyl)hydrazinalidene)methyl)phenyl)methanesulfonamide]
- pIC50 [1]: < 6.00
- pIC50 [2]: < 5.00

SMILES: CC1=C(/C=N/NC(=O)c2cncc(-c3ccc(OC(C)C)cc3)n2)CCCC1 [Compound 199, (E)-6-(4-isopropoxyphenyl)-N′-((2-methylcyclohept-1-en-1-yl)methylene)pyrazine-2-carbohydrzide]
- pIC50 [1]: 6.78
- pIC50 [2]: 5.76

SMILES: COc1ccc(-c2cncc(C(=O)N/N=C/C3=C(C)CCCCC3)n2)cc1 [Compound 200]
- pIC50 [1]: 6.89
- pIC50 [2]: 5.58

SMILES: CC1=C(/C=N/NC(=O)c2cncc(-c3ccc(OC(C)C)cc3)n2)CCCCC1 [Compound 202, (E)-6-(4-isopropoxyphenyl)-N′-((2-methylcyclohept-1-en-1-yl)methylene)pyrazine-2-carbohydrazide]
- pIC50 [1]: 7.03
- pIC50 [2]: 6.97

SMILES: CCOc1ccc(-c2nc(C(=O)N/N=C/c3cc(OC)cc(OC)c3)cnc2N)cc1 [Compound 206, (E)-5-amino-N′-(3,5-dimethoxybenzylidene)-6-(4-ethoxyphenyl)pyrazine-2-carbohydrazide]
- pIC50 [1]: < 6.00
- pIC50 [2]: < 5.00

SMILES: CCOc1ccc(-c2nc(C(=O)N/N=C/c3cc(OC)cc(OC)c3)cnc2Cl)cc1 [Compound 209, (E)-5-chloro-N′-(3,5-dimethoxybenzylidene)-6-(4-ethoxyphenyl)pyrazine-2-carbohydrazide]
- pIC50 [1]: 6.72
- pIC50 [2]: 5.61
